From PMC8765251, “Orally administered intelligent self-ablating nanoparticles: a new approach to improve drug cellular uptake and intestinal absorption” (Drug Delivery, 2022)
Where two headings read alike, the source gives them in different places.

Test: Pharmacokinetic study
Format: in vivo
Details: SD rats; for AUC: serum liraglutide by ELISA, n = 5/group, mean ± SD
Method: SD rats (GemPharmatech Co., Ltd.) weighing 200–220 g were fasted overnight and randomly divided into five groups(n = 5/group): […] The first four groups were administered orally. After a single administration, blood was collected and centrifuged, and serum was collected. An ELISA Kit for liraglutide was used to measure the blood concentration of liraglutide. The assay was performed according to the instructions of the ELISA Kit for liraglutide. The processed samples were tested using a microplate reader (CYT5MV microplate reader, BioTek USA Botten Instruments Co., Ltd.), and the drug concentration was calculated by plotting the curve.

BR (relative bioavailability) (oral (i.g.) versus subcutaneous liraglutide, dose-normalised AUC): 5.37%
AUC (single oral administration): 1061.18 ± 56.55 pg·h/mL
BR (relative bioavailability) (subcutaneous injection, the reference): 100%
AUC (Sprague-Dawley, rat, sc, single subcutaneous injection, read-out: AUC): 1980 ± 109 pg·h/mL
Compound: CCCCCCCCCCCCCCCC(=O)N[C@@H](CCC(=O)NCCCC[C@H](NC(=O)[C@H](C)NC(=O)[C@H](C)NC(=O)[C@H](CCC(N)=O)NC(=O)CNC(=O)[C@H](CCC(=O)O)NC(=O)[C@H](CC(C)C)NC(=O)[C@H](Cc1ccc(O)cc1)NC(=O)[C@H](CO)NC(=O)[C@H](CO)NC(=O)[C@@H](NC(=O)[C@H](CC(=O)O)NC(=O)[C@H](CO)NC(=O)[C@@H](NC(=O)[C@H](Cc1ccccc1)NC(=O)[C@@H](NC(=O)CNC(=O)[C@H](CCC(=O)O)NC(=O)[C@H](C)NC(=O)[C@@H](N)Cc1cnc[nH]1)[C@@H](C)O)[C@@H](C)O)C(C)C)C(=O)N[C@@H](CCC(=O)O)C(=O)N[C@@H](Cc1ccccc1)C(=O)N[C@H](C(=O)N[C@@H](C)C(=O)N[C@@H](Cc1c[nH]c2ccccc12)C(=O)N[C@@H](CC(C)C)C(=O)N[C@H](C(=O)N[C@@H](CCCNC(=N)N)C(=O)NCC(=O)N[C@@H](CCCNC(=N)N)C(=O)NCC(=O)O)C(C)C)[C@@H](C)CC)C(=O)O [liraglutide]
